Measured values published in publication PMC5490407, “Chiral Derivatives of Xanthones: Investigation of the Effect of Enantioselectivity on Inhibition of Cyclooxygenases (COX-1 and COX-2) and Binding Interaction with Human Serum Albumin” (Pharmaceuticals, 2017).

Legend:
[1] = molecular target: T1, COX-1 (Ovis aries, UniProt P05979); assay: COX Inhibitor Screening Assay Kit, COX-1 inhibition; format: biochemical, ovine; settings: CDXs 20 µmol/L; mean ± standard deviation, triplicate in two independent days
T1 construct: purchased Cayman Chemical
T1 sequence (P05979 25-600): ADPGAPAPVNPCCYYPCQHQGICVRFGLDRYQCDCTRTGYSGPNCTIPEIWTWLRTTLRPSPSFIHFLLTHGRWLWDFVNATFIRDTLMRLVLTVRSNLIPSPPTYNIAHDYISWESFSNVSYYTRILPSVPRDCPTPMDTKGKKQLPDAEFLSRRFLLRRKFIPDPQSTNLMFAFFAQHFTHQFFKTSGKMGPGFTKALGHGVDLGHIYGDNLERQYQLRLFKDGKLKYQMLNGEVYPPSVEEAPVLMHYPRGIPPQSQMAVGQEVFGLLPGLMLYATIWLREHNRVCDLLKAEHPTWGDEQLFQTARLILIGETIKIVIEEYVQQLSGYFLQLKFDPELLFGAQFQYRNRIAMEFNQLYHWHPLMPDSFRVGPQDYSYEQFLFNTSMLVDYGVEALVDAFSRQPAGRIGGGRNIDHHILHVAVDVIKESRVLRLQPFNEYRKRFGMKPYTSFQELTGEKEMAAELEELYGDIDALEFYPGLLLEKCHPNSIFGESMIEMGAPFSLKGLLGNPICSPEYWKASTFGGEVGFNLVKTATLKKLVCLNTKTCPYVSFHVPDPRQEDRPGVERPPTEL
Experimental: (§1) The effect of CDXs previously obtained in our group as inhibitors of membrane located enzymes that might be involved in inflammatory processes, namely COX-1 and COX-2, was evaluated. Three enantiomeric pairs of CDXs were chosen to study the inhibitory effect of both enantiomers of each pair face to biological targets in order to evaluate potency and enantioselectivity. The effect on COXs activity was studied by spectrofluorimetry using a commercial kit measuring the peroxidation activity of COXs. The kit includes isoenzyme-specific inhibitors for distinguishing COX-1 from COX-2 activities.
(§2) The evaluation of the inhibition of COX-1 and COX-2 by CDXs was conducted using the commercially available COX (ovine/human) Inhibitor Screening Assay Kit (Cayman Chemical, Michigan, MI, USA). Briefly, the assay implies an enzymatic immunoassay based on the competition between prostaglandins (PGs) and a PG-acetylcholinesterase (AChE) conjugate (PG tracer), which is then evaluated by the addition of Ellman’s reagent. All the solutions required for the experiment were prepared according to the manufacturer’s instructions. Each compound was analysed in two independent days, in triplicate. CDX working solutions were prepared in DMSO to a final concentration of 20 µM. […] Absorbance measurements at 412 nm were performed in a Synergy HT microplate reader (Bio-Tek Instruments, Winooski, VT, USA) operated with Gen5 software (Bio-Tek Instruments).

[2] = molecular target: T2, HSA (Homo sapiens, UniProt P02768); assay: Interaction with human serum albumin by fluorescence quenching; format: binding; settings: for Ymax, maximum percentage of HSA fluorescence quenching / Kd: HSA 2 µM, pH 7.4, 25 °C; for Ymax, maximum percentage of HSA fluorescence quenching / Kd / ∆G Binding: mean ± standard deviation of triplicate runs; for Kd: read-out: Kd, dissociation constant of CDX-HSA; for ∆G Binding: HSA binding
T2 construct: purchased Sigma-Aldrich
Experimental: Evaluation of the binding of CDXs to HSA was based on the quenching of HSA intrinsic fluorescence. Phosphate buffer consisting of 7.5 mM Na2HPO4, 1.5 mM KH2PO4 and 140 mM NaCl (pH 7.4) was used in the preparation of CDX solutions. Solutions of HSA fraction V (Sigma-Aldrich, St. Louis, MO, USA) were prepared in water. Briefly, 500 µL of HSA (fixed final concentration 2 µM), increasing volumes of drug solution (n = 13, 0–200 µM) and phosphate buffer solution (pH 7.4) were mixed to a final volume of 1500 µL. The corresponding blank solutions were identically prepared and analysed in the absence of the drug. Fluorescence emission spectra were recorded in the range of 300–450 nm upon excitation at 295 nm. Excitation spectra were also recorded between 220 and 310 nm with emission set at 330 nm. For individual measurements, excitation and emission wavelength were set at 295 nm and 330 nm, respectively. For each measurement, fluorescence emission was automatically acquired during 180 s (5 nm bandwidth). For all compounds, UV-vis absorption spectra (200–500 nm) were recorded. These measurements were used to correct the fluorescence intensity values due to inner filter effects at the excitation wavelength. All experiments were performed at room temperature (25 ± 1 °C). Fluorescence and absorbance measurement were performed in a LS-50B spectrometer (Perkin Elmer, Waltham, MA, USA) and a V-660 spectrophotometer (Jasco, Easton, MD, USA) respectively.
HSA-CDX binding parameters were calculated using the Origin 8.5.1 software (8.5.1, Northampton, MA, USA). The fitting of the experimental values was made according to the Langmuir binding equation (Equation (1)) to calculate HSA binding parameters: (1) [HSA−CDX]=[HSA]/1+ Kd/[CDX] where [HSA], [CDX] and [HSA-CDX] are given in μM and Kd corresponds to the dissociation constant of HSA-CDX complexes.
In terms of fluorescence quenching mediated by the compound, the previous Langmuir isotherm can be rewritten as follows (Equation (2)):(2) %quenching=ymax^n/1+ Kd/[CDX] where ymax corresponds to the highest percentage of quenching induced by a given compound and n accounts for the number of biding sites of the enzyme to the CDX. Finally, free Gibbs energy (ΔG) was also determined for all the interactions.

[3] = molecular target: T3, COX-2 (Homo sapiens, UniProt P35354); assay: COX Inhibitor Screening Assay Kit, COX-2 inhibition; format: biochemical; settings: for percentage of enzyme inhibition, COX-2: CDXs 20 µmol/L, mean ± standard deviation, triplicate in two independent days
T3 construct: purchased Cayman Chemical
T3 sequence (P35354 18-604): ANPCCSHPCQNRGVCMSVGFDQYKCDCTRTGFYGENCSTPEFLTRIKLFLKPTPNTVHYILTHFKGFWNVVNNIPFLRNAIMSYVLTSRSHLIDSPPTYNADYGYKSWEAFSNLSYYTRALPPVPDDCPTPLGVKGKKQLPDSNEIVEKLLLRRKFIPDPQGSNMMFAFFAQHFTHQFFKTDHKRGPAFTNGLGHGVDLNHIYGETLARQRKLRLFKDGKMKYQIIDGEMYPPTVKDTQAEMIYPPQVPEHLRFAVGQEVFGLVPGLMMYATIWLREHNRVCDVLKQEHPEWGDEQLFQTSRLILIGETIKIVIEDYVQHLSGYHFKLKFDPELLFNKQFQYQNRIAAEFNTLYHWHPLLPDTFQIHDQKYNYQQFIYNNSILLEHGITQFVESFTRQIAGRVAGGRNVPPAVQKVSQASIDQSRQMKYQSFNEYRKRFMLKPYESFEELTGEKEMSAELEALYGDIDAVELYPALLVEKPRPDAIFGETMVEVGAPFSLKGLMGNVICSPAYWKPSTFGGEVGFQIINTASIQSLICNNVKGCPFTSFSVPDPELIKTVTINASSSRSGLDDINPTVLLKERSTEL
Experimental: as §1, §2

T2 sequence (P02768 25-609): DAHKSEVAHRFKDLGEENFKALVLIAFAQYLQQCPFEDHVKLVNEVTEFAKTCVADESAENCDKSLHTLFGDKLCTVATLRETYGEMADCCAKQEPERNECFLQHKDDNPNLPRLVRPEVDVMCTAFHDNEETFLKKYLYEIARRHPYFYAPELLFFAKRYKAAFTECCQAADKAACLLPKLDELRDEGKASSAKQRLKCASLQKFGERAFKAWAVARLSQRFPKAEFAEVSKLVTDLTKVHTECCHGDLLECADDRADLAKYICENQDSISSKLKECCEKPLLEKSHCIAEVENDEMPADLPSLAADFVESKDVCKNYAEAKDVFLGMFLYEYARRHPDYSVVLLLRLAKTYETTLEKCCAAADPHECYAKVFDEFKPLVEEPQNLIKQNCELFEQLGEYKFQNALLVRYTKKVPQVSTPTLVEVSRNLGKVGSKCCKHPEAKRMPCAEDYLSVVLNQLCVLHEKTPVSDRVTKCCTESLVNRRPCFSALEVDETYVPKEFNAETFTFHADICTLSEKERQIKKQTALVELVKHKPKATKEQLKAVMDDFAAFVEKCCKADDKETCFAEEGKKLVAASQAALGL

Row | Structure (SMILES) | percentage of enzyme inhibition, COX-1 [1] | Ymax, maximum percentage of HSA fluorescence quenching [2] | Kd [2] | percentage of enzyme inhibition, COX-2 [3] | ∆G Binding [2] | enzyme-type selectivity COX-2 vs COX-1 ([3]; paired t-test, p < 0.05) | difference in HSA binding affinity between (S)- and (R)-enantiomers ([2]; (S)-enantiomer higher affinity than (R)-enantiomer)
1 | COc1ccc2c(=O)c3cc(C(=O)N[C@@H](CO)c4ccccc4)ccc3oc2c1 [(R)-(+)-CDX1] | 79.6 ± 5.0% | 109.6 ± 1.6% | 61.8 ± 6.5 µM | 84.7 ± 5.7% |  |  | 
2 | COc1ccc2c(=O)c3cc(C(=O)N[C@@H](CO)C(C)C)ccc3oc2c1 [(R)-(+)-CDX2] | 66.8 ± 1.6% | 108.2 ± 0.2% | 29.2 ± 0.9 µM | 73.2 ± 0.4% | -2.0 ± 0.1 kcal/mol | more active at inhibiting COX-2 than COX-1 | 
3 | COc1ccc2c(=O)c3cc(C(=O)N[C@H](C)CO)ccc3oc2c1 [(R)-(−)-CDX3] | 75.2 ± 9.0% | 113.2 ± 1.4% | 26.4 ± 1.2 µM | 75.1 ± 7.2% |  |  | 
4 | COc1ccc2c(=O)c3cc(C(=O)N[C@@H](C)CO)ccc3oc2c1 [(S)-(+)-CDX3] | 91.7 ± 10.7% | 116.2 ± 0.6% | 31.4 ± 2 µM | 93.4 ± 11.4% | -2.0 ± 0.2 kcal/mol |  | 
5 | COc1ccc2c(=O)c3cc(C(=O)N[C@H](CO)c4ccccc4)ccc3oc2c1 [(S)-(−)-CDX1] | 87.6 ± 2.1% | 105.3 ± 0.4% | 23.6 ± 0.8 µM | 80.1 ± 12.8% |  |  | 
6 | COc1ccc2c(=O)c3cc(C(=O)N[C@H](CO)C(C)C)ccc3oc2c1 [(S)-(−)-CDX2] | 82.9 ± 5.2% | 107.4 ± 5.4% | 24.7 ± 1.1 µM | 85.7 ± 4.5% |  |  | 
7 | COc1ccc2c(=O)c3cc(C(=O)NC(CO)c4ccccc4)ccc3oc2c1 (stereo not shown) [CDX1] |  |  |  |  |  |  | ca. 2.6 fold
